Key:
Format in all cases: biochemical
[1] = target: T1, CYP1A2 (Homo sapiens, UniProt P05177); assay: CYP inhibition assay in HLM, single concentration; conditions: human liver microsomes, probe Phenacetin, n = 3, read-out: % Inhibition (CYP 1A2)
T1 construct: Using HLM as the enzyme source; from tissue; host or cells: human liver microsomes
T1 sequence (P05177 1-516): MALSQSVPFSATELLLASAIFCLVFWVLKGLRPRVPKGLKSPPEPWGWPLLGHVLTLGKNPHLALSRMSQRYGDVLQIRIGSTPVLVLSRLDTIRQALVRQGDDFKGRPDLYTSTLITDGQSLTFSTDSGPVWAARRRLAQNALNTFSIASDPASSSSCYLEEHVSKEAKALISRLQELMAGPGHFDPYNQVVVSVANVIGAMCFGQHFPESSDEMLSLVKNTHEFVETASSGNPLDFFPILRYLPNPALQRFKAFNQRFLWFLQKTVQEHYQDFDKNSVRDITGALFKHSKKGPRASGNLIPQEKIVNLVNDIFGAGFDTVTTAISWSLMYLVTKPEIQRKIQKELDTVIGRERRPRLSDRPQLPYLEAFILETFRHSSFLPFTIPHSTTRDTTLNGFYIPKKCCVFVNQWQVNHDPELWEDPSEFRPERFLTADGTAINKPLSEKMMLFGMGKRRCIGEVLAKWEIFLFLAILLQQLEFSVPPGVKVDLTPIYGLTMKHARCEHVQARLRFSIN
Protocol: (§1) The regulatory bodies and pharmaceutical firms are quite concerned about CYP inhibition. Therefore, medicinal chemists often change the lead structure to decrease CYP inhibition. If left uncorrected, it can cause DDIs, enhanced drug concentration, and, thus, toxicity.
(§2) Using HLM as the enzyme source, the CYP inhibition potential was employed to assess the inhibitory effect of the TbB ligands on the CYP1A2, 2B6, 2C8, 2C9, 2C19, and 2D6 3A4 isoforms. Phenacetin (CYP1A2, […]), tolbutamide (CYP2C9, 20 mM), bupropion (CYP2B6, […]), mephenytoin (CYP2C19, […]), midazolam (CYP3A4, 5 mM), amodiaquine (CYP2C8, 0.02 mM), and dextromethorphan (CYP2D6, 5 mM) were used as probe substrates. The test substance included TbB ligand (final concentrations of […] for each) and HLMs (final concentration of 0.1 mg protein per mL), with or without 1.0 mM NADPH. The reaction was started by adding pre-incubated 25 μ L of NADPH into all wells and incubate at 37 °C for 10 min for 3A4 and 20 min for remaining all isoforms. The reaction was stopped by adding 100 μ L of stop solution to all wells. The samples were centrifuged at 4000 rpm for 10 min at 4 °C. Supernatant (100 μ L) was withdrawn, mixed with 200 μ L of water followed by LC-MS/MS analysis.

[2] = target: T2, CYP2B6 (Homo sapiens, UniProt P20813); assay: CYP inhibition assay in HLM, single concentration; conditions: human liver microsomes, probe Bupropion, n = 3, read-out: % Inhibition (CYP 2B6)
T2 construct: Using HLM as the enzyme source; from tissue; host or cells: human liver microsomes
T2 sequence (P20813 1-491): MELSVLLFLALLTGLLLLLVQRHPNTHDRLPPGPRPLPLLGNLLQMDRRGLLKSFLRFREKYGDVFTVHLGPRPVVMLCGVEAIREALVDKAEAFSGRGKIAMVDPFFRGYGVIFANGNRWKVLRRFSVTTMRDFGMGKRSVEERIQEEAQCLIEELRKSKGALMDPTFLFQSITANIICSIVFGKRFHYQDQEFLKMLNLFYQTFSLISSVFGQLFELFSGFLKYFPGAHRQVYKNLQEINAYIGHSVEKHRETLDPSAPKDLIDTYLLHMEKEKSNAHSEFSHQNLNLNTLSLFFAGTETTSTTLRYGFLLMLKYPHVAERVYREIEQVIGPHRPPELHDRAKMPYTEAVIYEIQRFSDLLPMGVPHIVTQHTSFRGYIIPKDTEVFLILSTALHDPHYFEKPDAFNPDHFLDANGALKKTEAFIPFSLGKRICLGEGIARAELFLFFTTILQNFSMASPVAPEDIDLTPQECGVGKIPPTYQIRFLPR
Protocol: as §1, §2

[3] = target: T3, CYP2C19 (Homo sapiens, UniProt P33261); assay: CYP inhibition assay in HLM, single concentration; conditions: human liver microsomes, probe S-Mephenytoin, n = 3, read-out: % Inhibition (CYP 2C19)
T3 construct: Using HLM as the enzyme source; from tissue; host or cells: human liver microsomes
Protocol: as §1, §2

[4] = target: T4, CYP2C8 (Homo sapiens, UniProt P10632); assay: CYP inhibition assay in HLM, single concentration; conditions: human liver microsomes, probe Amodiaquine, n = 3, read-out: % Inhibition (CYP 2C8)
T4 construct: Using HLM as the enzyme source; from tissue; host or cells: human liver microsomes
T4 sequence (P10632 1-490): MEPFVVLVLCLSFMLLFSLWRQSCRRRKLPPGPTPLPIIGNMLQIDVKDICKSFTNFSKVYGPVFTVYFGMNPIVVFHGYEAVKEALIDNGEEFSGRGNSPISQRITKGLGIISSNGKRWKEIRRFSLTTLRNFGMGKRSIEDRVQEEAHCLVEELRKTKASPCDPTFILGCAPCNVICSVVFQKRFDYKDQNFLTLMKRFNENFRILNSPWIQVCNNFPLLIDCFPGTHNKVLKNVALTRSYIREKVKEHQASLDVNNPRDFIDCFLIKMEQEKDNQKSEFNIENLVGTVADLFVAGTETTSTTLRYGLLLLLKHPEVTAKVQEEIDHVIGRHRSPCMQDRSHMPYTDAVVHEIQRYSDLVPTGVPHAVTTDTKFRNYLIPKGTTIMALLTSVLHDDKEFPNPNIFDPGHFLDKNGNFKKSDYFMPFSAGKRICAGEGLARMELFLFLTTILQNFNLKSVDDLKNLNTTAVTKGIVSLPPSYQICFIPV
Protocol: as §1, §2

[5] = target: T5, CYP2C9 (Homo sapiens, UniProt P11712); assay: CYP inhibition assay in HLM, single concentration; conditions: human liver microsomes, probe Tolbutamide, n = 3, read-out: % Inhibition (CYP 2C9)
T5 construct: Using HLM as the enzyme source; from tissue; host or cells: human liver microsomes
Protocol: as §1, §2

[6] = target: T6, CYP2D6 (Homo sapiens, UniProt P10635); assay: CYP inhibition assay in HLM, single concentration; conditions: human liver microsomes, probe Dextromethorphan, n = 3, read-out: % Inhibition (CYP 2D6)
T6 construct: Using HLM as the enzyme source; from tissue; host or cells: human liver microsomes
Protocol: as §1, §2

[7] = target: T7, CYP3A4 (Homo sapiens, UniProt P08684); assay: CYP inhibition assay in HLM, single concentration; conditions: human liver microsomes, probe Midazolam, n = 3, read-out: % Inhibition (CYP 3A4)
T7 construct: Using HLM as the enzyme source; from tissue; host or cells: human liver microsomes
Protocol: as §1, §2

[8] = target: T2, CYP2B6; assay: Single concentration Kobs assay (time-dependent inhibition) in HLM; conditions: human liver microsomes, significant if >50%, read-out: 2B6 R_Inh% (reversible inhibition)

T7 sequence (P08684 whole entry): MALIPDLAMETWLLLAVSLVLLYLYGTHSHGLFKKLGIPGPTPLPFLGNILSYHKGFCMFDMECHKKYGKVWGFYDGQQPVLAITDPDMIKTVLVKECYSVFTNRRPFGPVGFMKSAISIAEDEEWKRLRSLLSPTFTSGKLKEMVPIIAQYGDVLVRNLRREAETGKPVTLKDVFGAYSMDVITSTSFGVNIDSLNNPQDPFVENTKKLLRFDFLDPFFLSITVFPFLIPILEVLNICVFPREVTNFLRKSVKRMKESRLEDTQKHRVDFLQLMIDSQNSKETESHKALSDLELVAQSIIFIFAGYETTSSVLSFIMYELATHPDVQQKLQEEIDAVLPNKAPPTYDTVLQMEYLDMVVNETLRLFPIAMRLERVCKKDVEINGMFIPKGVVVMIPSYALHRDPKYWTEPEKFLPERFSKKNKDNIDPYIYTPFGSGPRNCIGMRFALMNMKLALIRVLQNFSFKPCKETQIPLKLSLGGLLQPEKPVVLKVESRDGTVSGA
T3 sequence (P33261 whole entry): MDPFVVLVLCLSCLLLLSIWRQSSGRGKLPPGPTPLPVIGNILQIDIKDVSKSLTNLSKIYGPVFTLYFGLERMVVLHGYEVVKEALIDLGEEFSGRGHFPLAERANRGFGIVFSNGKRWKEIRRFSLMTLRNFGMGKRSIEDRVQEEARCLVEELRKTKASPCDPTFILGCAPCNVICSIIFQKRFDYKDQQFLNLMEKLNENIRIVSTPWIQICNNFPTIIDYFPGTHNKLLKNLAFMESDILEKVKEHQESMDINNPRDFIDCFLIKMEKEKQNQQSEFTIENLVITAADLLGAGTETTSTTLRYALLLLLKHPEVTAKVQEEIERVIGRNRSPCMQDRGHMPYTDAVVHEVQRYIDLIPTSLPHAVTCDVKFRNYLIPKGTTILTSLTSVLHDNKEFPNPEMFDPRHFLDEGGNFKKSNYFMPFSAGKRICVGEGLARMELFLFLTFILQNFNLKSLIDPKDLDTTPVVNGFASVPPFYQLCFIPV
T5 sequence (P11712 whole entry): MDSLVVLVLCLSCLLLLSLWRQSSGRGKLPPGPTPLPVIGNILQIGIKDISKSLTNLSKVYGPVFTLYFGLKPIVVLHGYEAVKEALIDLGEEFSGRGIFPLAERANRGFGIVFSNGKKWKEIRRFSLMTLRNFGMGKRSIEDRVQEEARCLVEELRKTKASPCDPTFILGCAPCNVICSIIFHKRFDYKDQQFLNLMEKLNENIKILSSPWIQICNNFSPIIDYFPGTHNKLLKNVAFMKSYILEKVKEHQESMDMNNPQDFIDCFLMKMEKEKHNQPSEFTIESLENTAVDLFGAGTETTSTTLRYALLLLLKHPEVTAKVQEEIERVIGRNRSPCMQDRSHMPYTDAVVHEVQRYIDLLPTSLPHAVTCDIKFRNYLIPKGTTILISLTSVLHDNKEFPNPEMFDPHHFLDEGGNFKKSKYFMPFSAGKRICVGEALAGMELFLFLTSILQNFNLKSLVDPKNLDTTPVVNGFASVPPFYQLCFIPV
T6 sequence (P10635 whole entry): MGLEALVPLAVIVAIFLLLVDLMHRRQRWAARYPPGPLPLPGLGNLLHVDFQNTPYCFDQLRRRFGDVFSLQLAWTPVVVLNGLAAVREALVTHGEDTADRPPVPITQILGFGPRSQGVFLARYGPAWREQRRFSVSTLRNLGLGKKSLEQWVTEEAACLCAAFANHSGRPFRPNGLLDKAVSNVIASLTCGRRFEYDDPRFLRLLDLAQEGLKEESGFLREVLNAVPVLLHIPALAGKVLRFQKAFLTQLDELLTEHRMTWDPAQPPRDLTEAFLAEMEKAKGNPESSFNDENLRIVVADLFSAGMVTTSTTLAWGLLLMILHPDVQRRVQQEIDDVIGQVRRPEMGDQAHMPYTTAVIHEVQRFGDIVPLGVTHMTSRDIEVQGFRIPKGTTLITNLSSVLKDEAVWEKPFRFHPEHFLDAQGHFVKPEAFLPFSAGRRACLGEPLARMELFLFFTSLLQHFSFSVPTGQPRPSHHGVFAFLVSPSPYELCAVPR

Question: For `COc1cc(-c2nnn(-c3cc(OC)c(O)c(OC)c3)n2)cc(OC)c1O` [223-2], which inhibition at 20 min, 10 µM [1] is on record?
Answer: The inhibition at 20 min, 10 µM was 33%.

Question: And the inhibition at 20 min, 10 µM [2]?
Answer: The inhibition at 20 min, 10 µM was 47%.

Question: What about the inhibition at 20 min, 10 µM [3] of the same molecule?
Answer: Its inhibition at 20 min, 10 µM is -2%.

Question: And the inhibition at 20 min, 10 µM [4]?
Answer: The inhibition at 20 min, 10 µM was 39%.

Question: What about the inhibition at 20 min, 10 µM [5] of the same molecule?
Answer: Its inhibition at 20 min, 10 µM is 68%.

Question: And the inhibition at 20 min, 10 µM [6]?
Answer: The inhibition at 20 min, 10 µM was -2%.

Question: And the inhibition at 10 min, 10 µM [7]?
Answer: The inhibition at 10 min, 10 µM was -6%.

Question: What about the inhibition at 30 min [8] of the same molecule?
Answer: Its inhibition at 30 min is < 50%.

Question: For `Cc1cc(-c2nnn(-c3cc(C)c(O)c(C)c3)n2)cc(C)c1O` [223-3], which inhibition at 20 min, 10 µM [1] is on record?
Answer: The inhibition at 20 min, 10 µM was 40%.

Question: And the inhibition at 20 min, 10 µM [2]?
Answer: The inhibition at 20 min, 10 µM was 80%.

Question: And the inhibition at 20 min, 10 µM [3]?
Answer: Its inhibition at 20 min, 10 µM is 84%.

Question: And the inhibition at 20 min, 10 µM [4]?
Answer: Its inhibition at 20 min, 10 µM is 88%.

Question: And the inhibition at 20 min, 10 µM [5]?
Answer: Its inhibition at 20 min, 10 µM is 82%.

Question: What about the inhibition at 20 min, 10 µM [6] of the same molecule?
Answer: Its inhibition at 20 min, 10 µM is 96%.

Question: And the inhibition at 10 min, 10 µM [7]?
Answer: Its inhibition at 10 min, 10 µM is 96%.

Question: What about the inhibition at 30 min [8] of the same molecule?
Answer: Its inhibition at 30 min is < 50%.

Question: `Oc1ccc(-c2nnn(-c3ccc(O)cc3)n2)cc1` [223-10] was tested. Which inhibition at 20 min, 10 µM [1] did it give?
Answer: Its inhibition at 20 min, 10 µM is 30%.

Question: What about the inhibition at 20 min, 10 µM [2] of the same molecule?
Answer: The inhibition at 20 min, 10 µM was 54%.

Question: What about the inhibition at 20 min, 10 µM [3] of the same molecule?
Answer: Its inhibition at 20 min, 10 µM is 33%.

Question: And the inhibition at 20 min, 10 µM [4]?
Answer: Its inhibition at 20 min, 10 µM is 82%.

Question: And the inhibition at 20 min, 10 µM [5]?
Answer: The inhibition at 20 min, 10 µM was 90%.

Question: What about the inhibition at 20 min, 10 µM [6] of the same molecule?
Answer: The inhibition at 20 min, 10 µM was -4%.

Question: What about the inhibition at 10 min, 10 µM [7] of the same molecule?
Answer: Its inhibition at 10 min, 10 µM is 22%.

Question: And the inhibition at 30 min [8]?
Answer: Its inhibition at 30 min is < 50%.

— article PMC9921896 (Molecules, 2023)
